Measured values reported in ChEMBL document CHEMBL4418481, “Chemical agents for the prevention of inhibition or tumor metastasis” (2013).
The source made the active and inactive calls. No cut-off for these calls is given here.

Experiments:
Protein S100-A4 = Protein S100-A4 (Homo sapiens, UniProt P26447); experiment: Binding affinity to S100A4 (unknown origin) assessed as inhibition of S100A4/myosin-2A interaction using fluorescein-tagged myosin-2A peptide (1908 to 1923 residues) by fluorescence polarization assay
Sequence of Protein S100-A4 (P26447 whole entry, the tested form may be a part): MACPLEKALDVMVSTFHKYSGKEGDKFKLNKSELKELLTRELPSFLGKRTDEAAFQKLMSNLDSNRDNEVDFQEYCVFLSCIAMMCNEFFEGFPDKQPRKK

MDA-MB-231 [1] = experiment: Growth inhibition of human MDA-MB-231 cells incubated for 24 hrs by MTT assay; type: functional
MDA-MB-231 [2] = experiment: Induction of cell death in human MDA-MB-231 cells at 50 uM incubated for 24 hrs by MTT assay relative to untreated control; type: functional

Row | Compound | EC50 (Protein S100-A4) [µM] | further results
1 | NC1=C(Cl)C(=O)c2ncccc2C1=O | 13.5 | –
2 | O=C1CC(Cl)C(=O)c2ccccc21 (centres undefined) | 67.5 | –
3 | Cc1ccc2c(n1)C(=O)C=CC2=O | 8.6 | –
4 | CCCCN(CCCC)CCCNC1=CC(=O)c2ncccc2C1=O | 70 | –
5 | CC(=O)N(C1=C(Cl)C(=O)c2ccccc2C1=O)c1ccc(F)cc1 | 96 | –
6 | O=C1C(=O)c2cc(Br)cc([N+](=O)[O-])c2-c2ccc(Br)cc21 | 8.3 | –
7 | CC(=O)NC1=C(Sc2ccc(Cl)cc2)C(=O)c2ccccc2C1=O | 94 | –
8 | CC1=C(SCC(=O)O)C(=O)c2ccccc2C1=O | 39 | –
9 | O=C1C(=O)c2cc([N+](=O)[O-])ccc2-c2ccccc21 | 0.5 to 2 | –
10 | COC1=C(N)C(=O)c2ncccc2C1=O | 12 | –
11 | Nc1c2c(=O)[nH]c(=O)c2c(N)c2c(=O)c3ccccc3c(=O)c12 | 36 | –
12 | O=C1NC(=S)S/C1=C/c1cc([N+](=O)[O-])ccc1Sc1ccc(C(F)(F)F)cn1 | 46 | GI50 (MDA-MB-231 [1]; MDA-MB-231, 24 h): 190 µM
13 | O=C1C(NCCF)=C(Cl)C(=O)c2ncccc21 | 28.7 | –
14 | O=C1C=CC(=O)c2ncccc21 | 16 | –
15 | Cc1oc(-c2ccc(Cl)cc2)cc1C(=O)/C(C#N)=C/c1ccccc1 | – | Activity (MDA-MB-231 [2]): 100%
16 | NC1=CC(=O)c2ncccc2C1=O | 34 | –
17 | O=C1C(=O)c2cc(Cl)ccc2-c2ccccc21 | 1.8 | –
18 | O=C(O)C[C@@H]1OCC=C2CN3CC[C@]45C6=CC(=O)C(=O)C([N+](=O)[O-])=C6N[C@H]4[C@H]1[C@H]2C[C@H]35 | – | GI50 (MDA-MB-231 [1]): inactive
19 | O=C1C(=C(Br)Br)c2ccccc2-c2ccccc21 | 35 | –
20 | O=C1C(NCCCN2CCCCC2)=CC(=O)c2ncccc21 | 85 | –
21 | CCSC1=C(C)C(=O)c2ccccc2C1=O | 51 | –
22 | CSC1=CC(=O)c2ccccc2C1=O | 92.5 | –
23 | O=C1C(Cl)=C(Cl)C(=O)c2ncccc21 | 14 | –
24 | CSC1=C(C)C(=O)c2ccccc2C1=O | 64 | –

Row | Compound | EC50 (Protein S100-A4) [µM] | further results
25 | O=C1C(=O)c2cc(Cl)ccc2-c2ccc(Cl)cc21 | 8.1 to 8.7 | –
26 | CC(=O)NC1=C(Cl)C(=O)c2ncccc2C1=O | 9 | –
27 | O=C1C(=O)c2cc([N+](=O)[O-])ccc2-c2ccc([N+](=O)[O-])cc21 | 18 | –
28 | O=C1C(=C2C=Nc3ccccc32)Nc2ccc(Br)cc21 | 31 | –
29 | CCSC1=CC(=O)c2ccccc2C1=O | 22 | –
30 | O=C1C=C(SCCO)C(=O)c2ccccc21 | 16 | –
31 | O=C1C(=O)c2cccc([N+](=O)[O-])c2-c2c1cccc2[N+](=O)[O-] | 16 | –
32 | Nc1ccc2c(c1)C(=O)C(=O)c1ccccc1-2 | 1.6 | –
33 | CC1=C(SCc2ccccc2)C(=O)c2ccccc2C1=O | 95 | –
34 | CC1=C(SCCO)C(=O)c2ccccc2C1=O | 62 | –
35 | Cc1ccc(S(=O)(=O)N/N=C2\C(=O)c3ccccc3-c3ccccc32)cc1 | 8.4 | –
36 | O=C1C(=O)c2cc(Br)ccc2-c2ccc(Br)cc21 | 19 | –
37 | CCCCSC1=CC(=O)c2ccccc2C1=O | 40 | –
38 | NC1=C(Br)C(=O)c2ncccc2C1=O | 16 | –
39 | Cc1ccc(C(=O)OC2=CC(=O)c3ccccc3C2=O)cc1 | 64 | –
40 | O=C(O)CCSC1=CC(=O)c2ccccc2C1=O | 21 | –
41 | O=C1c2ccccc2-c2ccccc2C1(Cl)Cl | 2.5 to 4.8 | –
42 | O=C1C2=C(SCCS2)C(=O)c2ccccc21 | 2.2 | –
43 | O=C1C(=O)c2ccccc2-c2ccccc21 [9,10-PHENANTHRENEQUINONE] | 3.8 | –
44 | O=C1C=C(NCCc2cc(Br)c(O)c(Br)c2)C(=O)c2ncccc21 | 92 | –
45 | CC(=O)NC1=CC(=O)c2cccnc2C1=O | 18 | –
46 | O=C1c2ccccc2C(=O)C(Cl)C1Cl (centres undefined) | 27 | –
47 | CC(=O)c1ccc2c(c1)-c1ccccc1C(=O)C2=O | 2.2 | –
48 | O=C1C(=O)c2cccc([N+](=O)[O-])c2-c2ccccc21 | 2.5 | –
